Assay results from ChEMBL document CHEMBL5360644, “Structure-Activity Relationship Studies of 2,4,5-Trisubstituted Pyrimidine Derivatives Leading to the Identification of a Novel and Potent Sirtuin 5 Inhibitor against Sepsis-Associated Acute Kidney Injury” (J Med Chem, 2023).
*1 amine or outer side, *2 acyl side, *3 side chain or, on linkers, in order; H or OH if unused. Where a SMILES comes first, the peptide text is derived from it. The star is where a group is joined. AMC = Cc1cc(=O)oc2cc(N*)ccc12; Suc = O=C(CCC(=O)[*:2])[*:1]

What follows are compounds tested against T1, NAD-dependent protein deacylase sirtuin-5, mitochondrial (Homo sapiens, UniProt Q9NXA8) (assay: Inhibition of human SIRT5 (34 to 269 residues) using Ac-Leu-Gly-Ser-Lys (Su)-AMC as fluorogenic substrate in presence of NAD+).
Target sequence in this assay (Q9NXA8 whole entry, the tested form may be a part): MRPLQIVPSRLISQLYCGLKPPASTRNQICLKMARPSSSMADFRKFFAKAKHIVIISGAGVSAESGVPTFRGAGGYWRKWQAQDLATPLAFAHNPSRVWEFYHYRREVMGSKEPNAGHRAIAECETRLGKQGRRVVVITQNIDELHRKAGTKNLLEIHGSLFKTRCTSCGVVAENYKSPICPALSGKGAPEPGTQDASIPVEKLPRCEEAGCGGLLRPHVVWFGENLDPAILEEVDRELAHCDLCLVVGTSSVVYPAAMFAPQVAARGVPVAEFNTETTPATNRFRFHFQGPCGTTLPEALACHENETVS

| SMILES | IC50 [µM] |
| --- | --- |
| CCOC(=O)c1cnc(Nc2cccc(F)c2Cl)nc1NCCCNC(=S)NCCC(=O)O | 2.39 |
| O=C(O)CCNC(=S)NCCCNc1nc(Nc2ccccc2Cl)ncc1C(=O)N1CCC(c2ccccc2)C1 (stereo not given) | 0.53 |
| COc1cc(NC(=O)c2cnc(Nc3ccccc3Cl)nc2NCCCNC(=S)NCCC(=O)O)cc(OC)c1 | 1.54 |
| CCOC(=O)c1cnc(Nc2ccccc2-c2ccccc2)nc1NCCCNC(=S)NCCC(=O)O | 3.98 |
| O=C(O)CCNC(=S)NCCCNc1nc(Nc2ccccc2Cl)ncc1C(=O)N[C@@H](Cc1ccccc1)C(=O)O | 1.71 |
| O=C(O)CCNC(=S)NCCCNc1nc(Nc2ccccc2Cl)ncc1C(=O)Nc1ccc2ccccc2c1 | 5.15 |
| CCOC(=O)c1cnc(Nc2c(F)cccc2F)nc1NCCCNC(=S)NCCC(=O)O | 2.82 |
| O=C(O)CCNC(=S)NCCCNc1nc(Nc2ccccc2Cl)ncc1C(=O)Nc1cccc2ccccc12 | 2.95 |
| O=C(O)CCNC(=S)NCCCNc1nc(Nc2ccccc2Cl)ncc1C(=O)O | 1.64 |
| CCOC(=O)c1cnc(Nc2cccc(C)c2Br)nc1NCCCNC(=S)NCCC(=O)O | 2.3 |
| CCOC(=O)c1cnc(Nc2cccc(Br)c2)nc1NCCCNC(=S)NCCC(=O)O | 22 |
| CCOC(=O)c1cnc(Nc2cccc(Br)c2C)nc1NCCCNC(=S)NCCC(=O)O | 3.48 |
| CCOC(=O)c1cnc(Nc2cccc(F)c2)nc1NCCCNC(=S)NCCC(=O)O | 9.57 |
| CC(C)CNC(=O)c1cnc(Nc2ccccc2Cl)nc1NCCCNC(=S)NCCC(=O)O | 6.72 |
| CCOC(=O)c1cnc(Nc2ccc(C)cc2)nc1NCCCNC(=S)NCCC(=O)O | 11.6 |
| O=C(O)CCNC(=S)NCCCNc1nc(Nc2ccccc2Cl)ncc1C(=O)NC1(c2ccccc2)CC1 | 2.8 |
| CCOC(=O)c1cnc(Nc2ccc(F)cc2)nc1NCCCNC(=S)NCCC(=O)O | 7.54 |
| CCOC(=O)c1cnc(Nc2cc(OC)cc(OC)c2)nc1NCCCNC(=S)NCCC(=O)O | 6.9 |
| CCOC(=O)c1cnc(Nc2ccccc2OC)nc1NCCCNC(=S)NCCC(=O)O | 10.7 |
| C[C@@H](NC(=O)c1cnc(Nc2ccccc2Cl)nc1NCCCNC(=S)NCCC(=O)O)c1ccccc1 | 1.08 |
| CCOC(=O)c1cnc(Nc2ccc(Br)cc2)nc1NCCCNC(=S)NCCC(=O)O | 7.52 |

| SMILES | IC50 [µM] |
| --- | --- |
| CCOC(=O)c1cnc(Nc2ccc(Cl)cc2)nc1NCCCNC(=S)NCCC(=O)O | 9.4 |
| O=C(O)CCNC(=S)NCCCNc1nc(Nc2ccccc2Cl)ncc1C(=O)NCCc1cc2ccccc2[nH]1 | 1.43 |
| CCOC(=O)c1cnc(Nc2ccccc2Br)nc1NCCCNC(=S)NCCC(=O)O | 4.06 |
| CCOC(=O)c1cnc(Nc2c(C)cccc2C)nc1NCCCNC(=S)NCCC(=O)O | 3.16 |
| CC[C@H](NC(=O)c1cnc(Nc2ccccc2Cl)nc1NCCCNC(=S)NCCC(=O)O)c1ccccc1 | 3.72 |
| O=C(O)CCNC(=S)NCCCNc1nc(Nc2ccccc2Cl)ncc1C(=O)N1CC[C@H](c2ccccc2)C1 | 0.31 |
| CC(C)(C)OC(=O)[C@@H](NC(=O)c1cnc(Nc2ccccc2Cl)nc1NCCCNC(=S)NCCC(=O)O)c1ccccc1 | 1.55 |
| Cc1ccccc1NC(=O)c1cnc(Nc2ccccc2Cl)nc1NCCCNC(=S)NCCC(=O)O | 5.45 |
| CCOC(=O)c1cnc(Nc2ccccc2F)nc1NCCCNC(=S)NCCC(=O)O | 5.87 |
| O=C(O)CCNC(=S)NCCCNc1nc(Nc2ccccc2Cl)ncc1C(=O)N1CCCC(c2ccccc2)C1 (stereo not given) | 3.66 |
| O=C(O)CCNC(=S)NCCCNc1nc(Nc2ccccc2Cl)ncc1C(=O)NC1CC1 | 9.56 |
| CC[C@@H](NC(=O)c1cnc(Nc2ccccc2Cl)nc1NCCCNC(=S)NCCC(=O)O)c1ccccc1 | 0.58 |
| O=C(O)CCNC(=S)NCCCNc1nc(Nc2ccccc2Cl)ncc1C(=O)N[C@@H]1C[C@H]1c1ccc(F)c(F)c1 | 1.24 |
| O=C(O)CCNC(=S)NCCCNc1nc(Nc2ccccc2Cl)ncc1C(=O)Nc1ccccc1 | 3.18 |
| CCOC(=O)c1cnc(Nc2cccc(Cl)c2)nc1NCCCNC(=S)NCCC(=O)O | 13.4 |
| CCOC(=O)c1cnc(Nc2cccc(OC)c2)nc1NCCCNC(=S)NCCC(=O)O | 17.1 |
| CCOC(=O)c1cnc(Nc2ccccc2Cl)nc1NCCCNC(=S)NCCC(=O)O | 1.9 |
| CCOC(=O)c1cnc(Nc2ccccc2)nc1NCCCNC(=S)NCCC(=O)O | 7.67 |
| COC(=O)c1cnc(Nc2ccccc2Cl)nc1NCCCNC(=S)NCCC(=O)O | 3.34 |
| CC(C)(C)OC(=O)[C@H](NC(=O)c1cnc(Nc2ccccc2Cl)nc1NCCCNC(=S)NCCC(=O)O)c1ccccc1 | 1.82 |
| O=C(O)CCNC(=S)NCCCNc1nc(Nc2ccccc2Cl)ncc1C(=O)NC1CCC1 | 7.93 |

| SMILES | IC50 [µM] |
| --- | --- |
| O=C(O)CCNC(=S)NCCCNc1nc(Nc2ccccc2Cl)ncc1C(=O)N[C@H]1c2ccccc2C[C@H]1O | 4.18 |
| CCOC(=O)c1cnc(Nc2cccc(F)c2C)nc1NCCCNC(=S)NCCC(=O)O | 2.38 |
| CC(CCc1ccccc1)NC(=O)c1cnc(Nc2ccccc2Cl)nc1NCCCNC(=S)NCCC(=O)O (stereo not given) | 1.6 |
| CCCNC(=O)c1cnc(Nc2ccccc2Cl)nc1NCCCNC(=S)NCCC(=O)O | 7.83 |
| O=C(O)CCNC(=S)NCCCNc1nc(Nc2ccccc2Cl)ncc1C(=O)N1CCCC1 | 21.5 |
| O=C(O)CCNC(=S)NCCCNc1nc(Nc2ccccc2Cl)ncc1C(=O)NCc1ccccc1 | 1.11 |
| CCOC(=O)c1cnc(Nc2ccccc2C)nc1NCCCNC(=S)NCCC(=O)O | 3.53 |
| CC(C)c1ccccc1NC(=O)c1cnc(Nc2ccccc2Cl)nc1NCCCNC(=S)NCCC(=O)O | 2.82 |
| COc1ccccc1NC(=O)c1cnc(Nc2ccccc2Cl)nc1NCCCNC(=S)NCCC(=O)O | 5.37 |
| O=C(O)CCNC(=S)NCCCNc1nc(Nc2ccccc2Cl)ncc1C(=O)Nc1ccccc1-c1ccccc1 | 4.84 |
| CCOC(=O)c1cnc(Nc2cccc(C)c2)nc1NCCCNC(=S)NCCC(=O)O | 16.9 |
| O=C(O)CCNC(=S)NCCCNc1nc(Nc2ccccc2Cl)ncc1C(=O)N[C@@H]1C[C@H]1c1ccccc1 | 2.54 |
| O=C(O)CCNC(=S)NCCCNc1nc(Nc2ccccc2Cl)ncc1C(=O)N1CCOCC1 | 8.6 |
| CC(C)OC(=O)c1cnc(Nc2ccccc2Cl)nc1NCCCNC(=S)NCCC(=O)O | 2.77 |
| O=C(O)CCNC(=S)NCCCNc1nc(Nc2ccccc2Cl)ncc1C(=O)N[C@H]1CCCC[C@@H]1O | 8.95 |
| O=C(O)CCNC(=S)NCCCNc1nc(Nc2ccccc2Cl)ncc1C(=O)N1CCC(c2ccccc2)CC1 | 3.54 |
| O=C(O)CCNC(=S)NCCCNc1nc(Nc2ccccc2Cl)ncc1C(=O)N1CCCC1c1ccccc1 (stereo not given) | 27.3 |
| CCOC(=O)c1cnc(Nc2ccc(OC)cc2)nc1NCCCNC(=S)NCCC(=O)O | 10.5 |
| CCOC(=O)c1cnc(Nc2ccc(Br)cc2C)nc1NCCCNC(=S)NCCC(=O)O | 2.7 |
| C[C@H](NC(=O)c1cnc(Nc2ccccc2Cl)nc1NCCCNC(=S)NCCC(=O)O)c1ccccc1 | 1.74 |

Each compound was assayed against T1, NAD-dependent protein deacylase sirtuin-5, mitochondrial (assay: Binding affinity to human SIRT5 (34 to 269 residues) assessed as thermal stabilization by measuring change in melting temperature at 60 uM incubated for 10 mins in presence of NAD+ by SYPRO orange dye based thermal shift assay).
Target sequence in this assay (Q9NXA8 37-310 limits assumed): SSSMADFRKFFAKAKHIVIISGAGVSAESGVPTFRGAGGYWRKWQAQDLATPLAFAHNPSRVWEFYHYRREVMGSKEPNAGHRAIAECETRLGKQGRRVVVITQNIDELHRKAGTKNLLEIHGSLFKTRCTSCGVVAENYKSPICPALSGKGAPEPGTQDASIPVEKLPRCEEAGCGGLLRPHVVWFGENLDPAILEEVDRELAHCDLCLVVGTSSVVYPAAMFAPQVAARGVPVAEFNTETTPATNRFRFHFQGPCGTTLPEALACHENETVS

| SMILES | ΔTm [°C] |
| --- | --- |
| CC(=O)N[C@@H](CC(C)C)C(=O)NCC(=O)N[C@@H](CO)C(=O)N[C@@H](CCCCNC(=O)CCC(=O)O)C(=O)Nc1ccc2c(C)cc(=O)oc2c1 (Ac-LGSK(Suc)-{AMC}) | 0.97 |

Each compound was assayed against T1, NAD-dependent protein deacylase sirtuin-5, mitochondrial (assay: Binding affinity to human SIRT5 (34 to 269 residues) assessed as thermal stabilization by measuring melting temperature at 60 uM incubated for 10 mins in presence of NAD+ by SYPRO orange dye based thermal shift assay (reference value: 66.32 degreeC)).
Target sequence in this assay (Q9NXA8 37-310 limits assumed): as above

| SMILES | Tm [°C] |
| --- | --- |
| CC(=O)N[C@@H](CC(C)C)C(=O)NCC(=O)N[C@@H](CO)C(=O)N[C@@H](CCCCNC(=O)CCC(=O)O)C(=O)Nc1ccc2c(C)cc(=O)oc2c1 (Ac-LGSK(Suc)-{AMC}) | 67.3 |

What follows are compounds tested against T2, NAD-dependent protein deacetylase sirtuin-2 (Homo sapiens, UniProt Q8IXJ6) (assay: Inhibition of recombinant SIRT2 (unknown origin) using Ac-Glu-Thr-Asp-Lys (Dec)-AMC as substrate).
T2 sequence (Q8IXJ6 whole entry): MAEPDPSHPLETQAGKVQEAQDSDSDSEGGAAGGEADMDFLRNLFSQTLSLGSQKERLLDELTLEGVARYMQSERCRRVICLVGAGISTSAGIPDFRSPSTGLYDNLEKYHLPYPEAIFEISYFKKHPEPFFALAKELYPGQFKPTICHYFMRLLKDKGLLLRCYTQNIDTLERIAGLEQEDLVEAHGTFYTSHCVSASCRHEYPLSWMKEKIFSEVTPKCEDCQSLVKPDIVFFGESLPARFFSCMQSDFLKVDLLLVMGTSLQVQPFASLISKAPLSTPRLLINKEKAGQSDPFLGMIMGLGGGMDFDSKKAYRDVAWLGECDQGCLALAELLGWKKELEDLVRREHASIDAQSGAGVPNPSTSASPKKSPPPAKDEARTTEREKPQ

| SMILES | IC50 [µM] |
| --- | --- |
| O=C(O)CCNC(=S)NCCCNc1nc(Nc2ccccc2Cl)ncc1C(=O)N1CC[C@H](c2ccccc2)C1 | 39.6 |
